Measurements from publication PMC3411462, “Long-acting κ opioid antagonists nor-BNI, GNTI and JDTic: pharmacokinetics in mice and lipophilicity” (BMC Pharmacology, 2012).
“And” between values parts separate entries of the source, which are not always exact repeats. Equal values may be shown once. Read-outs that look alike come from different tables or passages of the source.

Tests used:
Water solubility = assay type: physicochemical; details: distilled water, thermodynamic from solid, 25 °C, salt tested
Protocol: Distilled water was added slowly by microsyringe to 10–15 mg of drug in a glass vial, swirling until no solid was visible.

[1] = Brain and plasma concentrations in mice after intraperitoneal administration (LC-MS-MS), non-compartmental analysis; assay type: in vivo; details: for [drug],brain (free base equivalent) / [drug],plasma (free base equivalent): listed as nor-BNI.2HCl.H2O; for [drug],brain (free base equivalent) / [drug],plasma (free base equivalent) / AUC(0-inf) / concentration at 0.5 h / concentration at 1 h / concentration at 2 h / concentration at 4 h / concentration at 24 h / CL/F / Vd/F: 10 mg/kg; for AUC(0-inf) / Kp uu / Kp / MRT inf / concentration at 0.5 h / concentration at 1 h / concentration at 2 h / Tmax / AUC(0-t) / Cmax / k el / half-life / concentration at 4 h / concentration at 24 h / CL/F / Vd/F: male, mouse; for MRT inf: read-out: MRT 0-inf_obs; for k el: read-out: Lambda_z (converted); for half-life: read-out: t1/2 (converted)
Protocol: Doses are reported by weight of the specified salt. […] Body mass was measured to ±0.1 g.
Mice were sacrificed by cervical dislocation, then decapitated for collection of brain and blood samples. Trunk blood was collected in 1.5 mL polypropylene micro-centrifuge tubes, shaken with a few crystals of EDTA and cooled in ice-water. Samples were centrifuged at 14,000 rpm (revolutions per minute) for 15 minutes at 3 °C, then stored in glass sample vials at −20 °C until analysis. Brains were removed and immersed for 30 seconds in 2-methylbutane over dry ice, then stored in polypropylene tubes at −20 °C until sample preparation. Sample tubes were thawed in ice-water, distilled water was added (2:1 by weight) and the brain homogenized with a probe sonicator for 3 minutes over ice-water (Fisher Sonic Dismembrator 300 at 35% power). The probe was rinsed with ethanol and distilled water between samples. Brain homogenate was stored in glass sample vials at −20 °C until analysis by LC-MS-MS.
Drug concentrations (ng mL^-1) refer to the free base, and were measured by liquid chromatography-tandem mass spectrometry (LC-MS-MS) as described previously. Briefly, samples were shaken with 3 volumes of methanol and centrifuged at 3000 g. Aliquots of the supernatants were diluted with 5 volumes of water containing an appropriate internal standard. Extracts from in vitro and in vivo experiments were analyzed by multiple reaction monitoring on an API3000 or API4000 LC-MS-MS system with electrospray ion source, controlled and analyzed using the Analyst software package (Applied Biosystems, Foster City, CA). Chromatography was conducted on a Sprite Armor C18 analytical column (20 × 2.1 mm, 10 μm particle size, Analytical Sales and Products, Pompton Plains, NJ) with a 0.5 μm PEEK guard filter. Compounds were eluted with a gradient from 2% to 95% acetonitrile in water, both containing 0.1% formic acid. Compounds were detected in positive ion mode, tuned to the mass transition with the largest intensity. Analyte concentrations were determined by comparison of analyte:internal standard peak area ratios to those of standards prepared in the appropriate matrices.
For calculation of mean concentrations, the earliest values below the MRC were substituted by MRC ÷ 2, as recommended elswhere. Pharmacokinetic parameters were calculated from mean concentrations using PKSolver, employing non-compartmental analysis for extravascular administration. Curves in figures were fitted using Origin 8.5 (OriginLab, Northampton, MA) using 2-compartment models. Confidence intervals and two-tailed p values (unpaired t test) were calculated using Graphpad Quickcalcs. One outlier was identified using Grubbs' test (p < 0.01) and excluded from the analysis; see Additional file 1.

mice = experiment: Fatalities and behavioral effects after i.p. administration; details: 100 mg kg^-1
Protocol: Experiments were performed between 10 am and 6 pm. Mice were not used in other experiments, or exposed to other drugs, before testing began.
Doses are reported by weight of the specified salt. Intraperitoneal injections were administered in distilled water vehicle (10 mL kg^-1). Body mass was measured to ±0.1 g. Some values were inadvertently measured on a low-precision balance (± 2.5 g); these timepoints were replicated at ±0.1 g.

[2] = parameters: method as in earlier work; details: preliminary reports; cited from earlier work
μ opioid receptor = tested on: μ opioid receptor; parameters: method as in PMID 1326932; details: after subcutaneous administration; cited from earlier work
[3] = 0.5 h, 10 mg/kg i.p., individual mice
[4] = 1 h, 10 mg/kg i.p., individual mice
[5] = 2 h, 10 mg/kg i.p., individual mice
[6] = Swiss-Webster, ip, brain NCA, 10 mg/kg i.p.
[7] = Swiss-Webster, ip, plasma NCA, 10 mg/kg i.p.
[8] = within 1 hour, 10 mg kg^-1 i.p.
[9] = within 4 hours, 10 mg kg^-1 i.p.

Oc1ccc2c3c1O[C@H]1c4[nH]c5c(c4C[C@@]4(O)[C@@H](C2)N(CC2CC2)CC[C@]314)C[C@@]1(O)[C@H]2Cc3ccc(O)c4c3[C@@]1(CCN2CC1CC1)[C@H]5O4 [nor-BNI, norbinaltorphimine]
solubility (Water solubility): > 45 mM | Time of maximal mean plasma level ([1]; 10 mg kg^-1 i.p., mice): 30 min | [drug],brain (free base equivalent) [1, 3]: 477 ng/g and 471 ng/g and 309 ng/g and 609 ng/g and 438 ng/g | [drug],plasma (free base equivalent) [1, 3]: 6130 ng/mL and 4810 ng/mL and 2110 ng/mL and 3050 ng/mL | [drug],brain (free base equivalent) [1, 4]: 250 ng/g and 396 ng/g and 299 ng/g and 372 ng/g and 207 ng/g | [drug],plasma (free base equivalent) [1, 4]: 3060 ng/mL and 2060 ng/mL and 1510 ng/mL and 1140 ng/mL and 1170 ng/mL | [drug],brain (free base equivalent) [1, 5]: <120 ng/g | [drug],plasma (free base equivalent) [1, 5]: 343 ng/mL and 309 ng/mL | [drug],plasma (free base equivalent) ([1]; 4 h, 10 mg/kg i.p., individual mice): 173 ng/mL and 156 ng/mL | [drug],plasma (free base equivalent) ([1]; 24 h, 10 mg/kg i.p., individual mice): 63 ng/mL and 50 ng/mL and 14 ng/mL | Peak unbound brain level ([1]; at 30 minutes, 10 mg kg^-1 i.p., estimate): ≤ 26 nM | AUMC 0-inf_obs ([1]; brain NCA, 10 mg/kg i.p.): 712.925 ng/ml*h^2 | Tlag ([1]; brain NCA, 10 mg/kg i.p.): 0 h | C max,brain ([1]; brain, 10 mg kg^-1 i.p., mice): 443 ng/mL | AUC(0-inf) ([1]; Swiss-Webster (Crl:CFW(SW)), brain, ip, brain NCA, 10 mg/kg i.p., read-out: AUC 0-inf_obs): 593 ng·h/mL | Kp uu ([1]; Swiss-Webster (Crl:CFW(SW)), brain/plasma (unbound), ip, supplement, 10 mg/kg i.p., read-out: Kp,uu,brain (AUC0–∞,brain,u / AUC0–∞,p,u)): < 0.00725 | Kp ([1]; Swiss-Webster (Crl:CFW(SW)), brain/plasma, ip, supplement, 10 mg/kg i.p., read-out: Kp,brain (AUC0–∞,brain / AUC0–∞,p)): 0.0924 | MRT inf ([1]; Swiss-Webster (Crl:CFW(SW)), ip, brain NCA, 10 mg/kg i.p.): 1.2 h | Kp uu ([1]; Swiss-Webster, brain and plasma (unbound), ip, 10 mg kg^-1 i.p., mice, read-out: Cmax,brain,u/Cmax,p,u): < 0.009 | Kp uu ([1]; Swiss-Webster, brain and plasma (unbound), ip, 10 mg kg^-1 i.p., mice, read-out: K p,uu,brain (AUC0–∞,brain,u/AUC0–∞,p,u)): < 0.007 | Kp ([1]; Swiss-Webster, brain and plasma, ip, 10 mg kg^-1 i.p., mice, read-out: Cmax,brain/Cmax,p): 0.11 | Kp ([1]; Swiss-Webster, brain and plasma, ip, 10 mg kg^-1 i.p., mice, read-out: K p,brain (AUC0–∞,brain/AUC0–∞,p)): 0.09 | concentration at 0.5 h ([1]; Swiss-Webster, brain, intraperitoneal, 0.5 h, read-out: Conc (brain, NCA input)): 443 ng/mL | concentration at 1 h ([1]; Swiss-Webster, brain, intraperitoneal, 1 h, read-out: Conc (brain, NCA input)): 308 ng/mL | concentration at 2 h ([1]; Swiss-Webster, brain, intraperitoneal, 2 h, read-out: Conc (brain, NCA input)): 96.3 ng/mL | concentration at 0.5 h ([1]; Swiss-Webster, brain, ip, 0.5 h, 10 mg/kg i.p., individual mice, read-out: [drug],brain (free base equivalent)): 354 ng/g | concentration at 0.5 h ([1]; Swiss-Webster, brain, ip, 0.5 h, 10 mg/kg i.p., read-out: mean (brain)): 443 ng/g | concentration at 1 h ([1]; Swiss-Webster, brain, ip, 1 h, 10 mg/kg i.p., individual mice, read-out: [drug],brain (free base equivalent)): 324 ng/g | concentration at 1 h ([1]; Swiss-Webster, brain, ip, 1 h, 10 mg/kg i.p., read-out: mean (brain)): 308 ng/g | concentration at 2 h ([1]; Swiss-Webster, brain, ip, 2 h, 10 mg/kg i.p., individual mice, read-out: [drug],brain (free base equivalent)): 169 ng/g | concentration at 2 h ([1]; Swiss-Webster, brain, ip, 2 h, 10 mg/kg i.p., <MRC substituted by MRC/2, read-out: mean (brain)): 96 ng/g | AUC(0-inf) ([1]; Swiss-Webster, brain, ip, brain, 10 mg kg^-1 i.p., non-compartmental analysis, read-out: AUC 0–∞,brain): 593 ng·h/mL | Tmax ([1]; Swiss-Webster, in vivo, ip, ·2HCl salts, 10 mg kg^-1 i.p., mice): 30 min | AUC(0-t) [1, 6]: 501 ng·h/mL | Tmax [1, 6]: 30 min | Cmax ([1]; Swiss-Webster, ip, brain NCA, 10 mg/kg i.p., read-out: Cmax): 443 ng/mL | k el [1, 6]: 0.000288 s⁻¹ | half-life [1, 6]: 40.1 min | AUC(0-t) [1, 7]: 5910 ng·h/mL | Tmax [1, 7]: 30 min | k el [1, 7]: 2.28e-05 s⁻¹ | MRT inf [1, 7]: 6 h | half-life [1, 7]: 507 min | Cmax ([1]; Swiss-Webster, ip, plasma, 10 mg kg^-1 i.p., mice, read-out: C max,p): 4020 ng/mL | concentration at 0.5 h ([1]; Swiss-Webster, plasma, intraperitoneal, 0.5 h, read-out: Conc (plasma, NCA input)): 4020 ng/mL | concentration at 1 h ([1]; Swiss-Webster, plasma, intraperitoneal, 1 h, read-out: Conc (plasma, NCA input)): 1790 ng/mL | concentration at 2 h ([1]; Swiss-Webster, plasma, intraperitoneal, 2 h, read-out: Conc (plasma, NCA input)): 339 ng/mL | concentration at 4 h ([1]; Swiss-Webster, plasma, intraperitoneal, 4 h, read-out: Conc (plasma, NCA input)): 148 ng/mL | concentration at 24 h ([1]; Swiss-Webster, plasma, intraperitoneal, 24 h, read-out: Conc (plasma, NCA input)): 42 ng/mL | concentration at 0.5 h ([1]; Swiss-Webster, plasma, ip, 0.5 h, 10 mg/kg i.p., read-out: mean (plasma)): 4020 ng/mL | concentration at 1 h ([1]; Swiss-Webster, plasma, ip, 1 h, 10 mg/kg i.p., read-out: mean (plasma)): 1790 ng/mL | concentration at 2 h ([1]; Swiss-Webster, plasma, ip, 2 h, 10 mg/kg i.p., individual mice, read-out: [drug],plasma (free base equivalent)): 366 ng/mL | concentration at 2 h ([1]; Swiss-Webster, plasma, ip, 2 h, 10 mg/kg i.p., read-out: mean (plasma)): 339 ng/mL | concentration at 4 h ([1]; Swiss-Webster, plasma, ip, 4 h, 10 mg/kg i.p., individual mice, read-out: [drug],plasma (free base equivalent)): 116 ng/mL | concentration at 4 h ([1]; Swiss-Webster, plasma, ip, 4 h, 10 mg/kg i.p., read-out: mean (plasma)): 148 ng/mL | concentration at 24 h ([1]; Swiss-Webster, plasma, ip, 24 h, 10 mg/kg i.p., <MRC substituted by MRC/2, read-out: mean (plasma)): 42 ng/mL | AUC(0-inf) ([1]; Swiss-Webster, plasma, ip, plasma NCA, 10 mg/kg i.p., read-out: AUC 0-inf_obs): 6420 ng·h/mL | CL/F ([1]; Swiss-Webster, plasma, ip, plasma NCA, 10 mg/kg i.p., read-out: Cl/F_obs (converted)): 26 mL/min/kg | Vd/F ([1]; Swiss-Webster, plasma, ip, plasma NCA, 10 mg/kg i.p., read-out: Vz/F_obs): 19 L/kg | AUC(0-inf) ([1]; Swiss-Webster, plasma, ip, plasma, 10 mg kg^-1 i.p., non-compartmental analysis, read-out: AUC 0–∞,p): 6420 ng·h/mL | CL/F ([1]; Swiss-Webster, plasma, ip, plasma, 10 mg kg^-1 i.p., non-compartmental analysis, read-out: CL/F (converted)): 28.3 mL/min/kg | Vd/F ([1]; Swiss-Webster, plasma, ip, plasma, 10 mg kg^-1 i.p., non-compartmental analysis, read-out: V z /F): 19 L/kg | AUMC 0-inf_obs ([1]; plasma NCA, 10 mg/kg i.p.): 38503.5 ng/ml*h^2 | Tlag ([1]; plasma NCA, 10 mg/kg i.p.): 0 h | C max,brain,u ([1]; unbound brain, 10 mg kg^-1 i.p., in vivo brain binding assumed at least 3-fold greater than homogenate): < 26 nmol/L | Decline of mean brain level from peak [1, 8]: 31% | Decline of mean plasma concentration from peak [1, 8]: 56% | Decline of mean plasma concentration from peak ([1]; within 2 hours, 10 mg kg^-1 i.p.): 92% | Decline of brain levels [1, 9]: at least 75% | Decline of mean plasma concentration from peak [1, 9]: at least 80% | Behavioral effects observed (mice): Only mild behavioral effects, such as hiccup-like spasms and shivering | Fatalities (mice): no fatalities | Detection in mouse brain after administration [2]: up to 21 days | μ antagonism, duration (μ opioid receptor): approximately 4 hours | μ antagonism, time of peak (μ opioid receptor): approximately 30 minutes
